# Where a name gives a salt, the structure may show the parent alone. Read-outs that look alike come from different tables or passages of the source.
# Experiments:
# Format in all cases: physicochemical
# [1] = critical water activity for hydrate formation (PXRD of solids from methanol/water suspensions); settings: ambient temperature
# Source text: The critical water activity of the monohydrate salt can be determined by mixing different ratios of organic solvents and water. The analysis of the water activity for these solvent mixtures are temperature dependent. Determination of the critical water activity typically comprises the following steps: (1) preparation of solvent mixtures with a range of water activities; (2) saturation of the organic solvent/water mixtures with the monohydrate salt; (3) the optional filtration of the saturated solution; (4) addition of a 1:1 solid mixture (e.g., 25 mg/phase) of the anhydrous and hydrated phases to the saturated organic solvent/water mixtures; (5) equilibration at the temperature of interest (3-5 days); and (6) analysis of the residual solids by the appropriate technique, as understood by one skilled in the art (e.g., PXRD) to determine the identity of the stable phases.
# The inventors determined the critical water activity for (4s)-4-(5-phenyl-1,3,4-thiadiazol-2-yloxy)-1-azatricyclo[3.3.1.1^3,7]decane dihydrogen citrate monohydrate at ambient temperature. Specifically, the inventors developed suspensions of the crystalline product in mixtures of methanol and water, with water activities of 0.20, 0.15, 0.10, and 0.05, performing powder X-ray diffraction patterns for each suspension, respectively. […]
# [2] = hygroscopicity by dynamic moisture sorption balance
# Protocol: Dynamic moisture sorption balance (DMSB) was used to evaluate the hygroscopicity of the crystalline monohydrate compound. The hygroscopicity was evaluated using a dynamic moisture sorption balance (IGAsorp, Hiden Isochema) equipped with a data analyzer. The balance was calibrated using standardized weights of 20, 50, and 100 mg. The RH probe was calibrated using standardized salt solutions of lithium chloride, potassium carbonate, and sodium chloride. During the experiment, the flow rate of nitrogen gas at different relative humidity was 250 mL/min. For anhydrous materials, the sample was first dried with dry nitrogen at 50° C. for two hours. The temperature was then set to 25° C. and the relative humidity was changed from 0% to 90% and back to 0% at 10% intervals. For hydrated samples the temperature was set to 25° C. and the relative humidity was changed at 10% intervals from 30% to 90%, back to 10%, and then to 90%. For each step described herein, a one hour equilibration time period was used.
# solubility in water = assay: solubility in water
smiles,measurement,setting,value
"c1ccc(-c2nnc(O[C@@H]3C4CC5C[C@H]3C[N@](C5)C4)s2)cc1 [(4s)-4-(5-phenyl-1,3,4-thiadiazol-2-yloxy)-1-azatricyclo[3.3.1.1^3,7]decane dihydrogen citrate]",water activity of solvent at which the salt exists as the anhydrate,[1],≤ 0.10
same,water activity of solvent at which the salt exists as the monohydrate,[1],≥ 0.15
"c1ccc(-c2nnc(O[C@@H]3C4CC5C[C@H]3C[N@](C5)C4)s2)cc1 [dihydrogen citrate anhydrate, (4s)-4-(5-phenyl-1,3,4-thiadiazol-2-yloxy)-1-azatricyclo[3.3.1.1^3,7]decane dihydrogen citrate]",hygroscopicity (in words),[2],non-hygroscopicity
same,solubility,solubility in water,28 mg/mL
"c1ccc(-c2nnc(O[C@@H]3C4CC5C[C@H]3C[N@](C5)C4)s2)cc1 [dihydrogen citrate monohydrate, (4s)-4-(5-phenyl-1,3,4-thiadiazol-2-yloxy)-1-azatricyclo[3.3.1.1^3,7]decane dihydrogen citrate monohydrate]",hygroscopicity (in words),[2]; citrate monohydrate,non-hygroscopic
same,hygroscopicity (in words),"[2]; listed as crystalline monohydrate of (4s)-4-(5-phenyl-1,3,4-thiadiazol-2-yloxy)-1-azatricy, citrate monohydrate",non-hygroscopic
same,weight change by dynamic moisture sorption,"[2]; relative humidities from 0% to 90%, listed as crystalline monohydrate of (4s)-4-(5-phenyl-1,3,4-thiadiazol-2-yloxy)-1-azatricy, citrate monohydrate",< 0.2%
